Columns and labels:
Test in all cases: SelectScreen, TR FRET
Conditions in all cases: compound 5.0 µM
PDGFRB (human) = PDGFRB (human) (UniProt P09619)
PHKG1 (human) = PHKG1 (human) (UniProt Q16816)
CAMK1D (human) = CAMK1D (human) (UniProt Q8IU85)
FER (human) = FER (human) (UniProt P16591)
MAPKAPK2 (human) = MAPKAPK2 (human) (UniProt P49137)
PRKCE (human) = PRKCE (human) (UniProt Q02156)
[1] = tested on: ABL1 (human), P00519 [Y253F]
AKT3 (human) = AKT3 (human) (UniProt Q9Y243)
MAP3K9 (human) = MAP3K9 (human) (UniProt P80192)
EPHA8 (human) = EPHA8 (human) (UniProt P29322)
ROCK1 (human) = ROCK1 (human) (UniProt Q13464)
MAP2K1 (human) = MAP2K1 (human) (UniProt Q02750)
ERBB2 (human) = ERBB2 (human) (UniProt P04626)
MAPKAPK3 (human) = MAPKAPK3 (human) (UniProt Q16644)
PTK2 (human) = PTK2 (human) (UniProt Q05397)
PRKG2 (human) = PRKG2 (human) (UniProt Q13237)
MST4 (human) = MST4 (human) (UniProt Q9P289)
DAPK3 (human) = DAPK3 (human) (UniProt O43293)
SGK3 (human) = SGK3 (human) (UniProt Q96BR1)
KDR (human) = KDR (human) (UniProt P35968)
FGFR4 (human) = FGFR4 (human) (UniProt P22455)
AURKB (human) = AURKB (human) (UniProt Q96GD4)
CAMK2B (human) = CAMK2B (human) (UniProt Q13554)
LCK (human) = LCK (human) (UniProt P06239)
PRKCA (human) = PRKCA (human) (UniProt P17252)
MINK1 (human) = MINK1 (human) (UniProt Q8N4C8)
JAK2 JH1 JH2 (human) = JAK2 JH1 JH2 (human) (UniProt O60674)
ERBB4 (human) = ERBB4 (human) (UniProt Q15303)
EPHA5 (human) = EPHA5 (human) (UniProt P54756)
NEK1 (human) = NEK1 (human) (UniProt Q96PY6)
TYRO3 (human) = TYRO3 (human) (UniProt Q06418)
PRKACA (human) = PRKACA (human) (UniProt P17612)
ADRBK2 (human) = ADRBK2 (human) (UniProt P35626)
ABL2 (human) = ABL2 (human) (UniProt P42684)
RPS6KA2 KD1 KD2 (human) = RPS6KA2 KD1 KD2 (human) (UniProt Q15349)
CSNK1A1 (human) = CSNK1A1 (human) (UniProt P48729)
CSNK2A2 (human) = CSNK2A2 (human) (UniProt P19784)
FLT1 (human) = FLT1 (human) (UniProt P17948)
CSNK1G2 (human) = CSNK1G2 (human) (UniProt P78368)
PRKCB1 (human) = PRKCB1 (human) (UniProt P05771)

ABL2 (human), sequence (P42684 whole entry, looked up): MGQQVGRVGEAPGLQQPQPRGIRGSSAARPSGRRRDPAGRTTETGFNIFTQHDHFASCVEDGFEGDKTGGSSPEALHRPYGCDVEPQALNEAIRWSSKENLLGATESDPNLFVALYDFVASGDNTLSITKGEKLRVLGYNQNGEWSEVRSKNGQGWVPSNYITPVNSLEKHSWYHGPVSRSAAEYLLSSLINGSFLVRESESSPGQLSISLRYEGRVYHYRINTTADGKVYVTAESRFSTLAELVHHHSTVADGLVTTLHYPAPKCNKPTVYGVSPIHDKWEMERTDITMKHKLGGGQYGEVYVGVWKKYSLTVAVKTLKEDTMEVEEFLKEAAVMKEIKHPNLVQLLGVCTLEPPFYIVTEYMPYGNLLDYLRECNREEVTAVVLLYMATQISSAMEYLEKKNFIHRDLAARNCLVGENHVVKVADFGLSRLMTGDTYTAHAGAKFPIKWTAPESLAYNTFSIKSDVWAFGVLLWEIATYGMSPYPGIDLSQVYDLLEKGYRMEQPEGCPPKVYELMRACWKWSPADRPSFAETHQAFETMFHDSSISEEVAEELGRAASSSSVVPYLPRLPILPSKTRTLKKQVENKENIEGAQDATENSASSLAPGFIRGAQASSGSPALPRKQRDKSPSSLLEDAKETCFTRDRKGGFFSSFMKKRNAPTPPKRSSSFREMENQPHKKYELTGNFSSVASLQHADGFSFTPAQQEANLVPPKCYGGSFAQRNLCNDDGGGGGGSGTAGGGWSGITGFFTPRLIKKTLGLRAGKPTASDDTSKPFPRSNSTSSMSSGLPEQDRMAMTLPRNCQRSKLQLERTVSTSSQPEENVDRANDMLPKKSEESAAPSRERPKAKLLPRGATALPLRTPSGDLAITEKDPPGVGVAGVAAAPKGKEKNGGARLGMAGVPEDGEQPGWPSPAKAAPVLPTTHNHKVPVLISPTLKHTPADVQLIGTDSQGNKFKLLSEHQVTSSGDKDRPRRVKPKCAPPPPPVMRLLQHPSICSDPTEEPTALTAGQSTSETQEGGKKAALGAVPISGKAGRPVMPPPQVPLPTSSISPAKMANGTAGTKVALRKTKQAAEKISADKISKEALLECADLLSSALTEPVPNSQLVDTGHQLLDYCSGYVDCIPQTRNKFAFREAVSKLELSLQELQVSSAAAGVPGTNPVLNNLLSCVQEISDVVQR
RPS6KA2 KD1 KD2 (human), sequence (Q15349 whole entry, looked up): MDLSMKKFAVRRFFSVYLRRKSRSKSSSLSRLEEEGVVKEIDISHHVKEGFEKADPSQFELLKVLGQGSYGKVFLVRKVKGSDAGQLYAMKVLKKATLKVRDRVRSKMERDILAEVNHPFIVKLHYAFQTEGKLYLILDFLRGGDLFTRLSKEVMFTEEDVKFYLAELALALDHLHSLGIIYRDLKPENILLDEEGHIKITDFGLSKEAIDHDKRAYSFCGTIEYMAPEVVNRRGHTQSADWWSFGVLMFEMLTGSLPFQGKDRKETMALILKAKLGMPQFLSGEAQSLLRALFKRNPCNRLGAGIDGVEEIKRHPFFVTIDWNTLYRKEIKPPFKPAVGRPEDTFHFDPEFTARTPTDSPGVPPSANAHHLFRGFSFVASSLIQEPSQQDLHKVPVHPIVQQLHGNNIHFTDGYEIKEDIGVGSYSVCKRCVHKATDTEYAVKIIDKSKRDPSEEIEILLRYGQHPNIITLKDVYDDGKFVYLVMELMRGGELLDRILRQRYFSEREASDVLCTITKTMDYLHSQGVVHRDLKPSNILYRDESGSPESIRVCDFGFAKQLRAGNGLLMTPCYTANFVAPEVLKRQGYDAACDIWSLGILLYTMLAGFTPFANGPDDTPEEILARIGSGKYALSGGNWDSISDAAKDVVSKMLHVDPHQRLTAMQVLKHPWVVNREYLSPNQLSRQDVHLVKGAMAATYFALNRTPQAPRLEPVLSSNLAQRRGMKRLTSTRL
CSNK1A1 (human), sequence (P48729 whole entry, looked up): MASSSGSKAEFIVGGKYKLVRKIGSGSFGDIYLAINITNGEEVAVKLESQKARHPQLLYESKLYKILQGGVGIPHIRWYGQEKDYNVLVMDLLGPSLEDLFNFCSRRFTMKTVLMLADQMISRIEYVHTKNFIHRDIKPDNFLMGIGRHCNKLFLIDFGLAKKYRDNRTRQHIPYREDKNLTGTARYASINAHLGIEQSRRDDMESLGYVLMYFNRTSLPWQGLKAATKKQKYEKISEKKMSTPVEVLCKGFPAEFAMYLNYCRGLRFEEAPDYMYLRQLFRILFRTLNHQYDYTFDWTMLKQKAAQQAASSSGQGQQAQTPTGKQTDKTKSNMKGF
PRKG2 (human), sequence (Q13237 whole entry, looked up): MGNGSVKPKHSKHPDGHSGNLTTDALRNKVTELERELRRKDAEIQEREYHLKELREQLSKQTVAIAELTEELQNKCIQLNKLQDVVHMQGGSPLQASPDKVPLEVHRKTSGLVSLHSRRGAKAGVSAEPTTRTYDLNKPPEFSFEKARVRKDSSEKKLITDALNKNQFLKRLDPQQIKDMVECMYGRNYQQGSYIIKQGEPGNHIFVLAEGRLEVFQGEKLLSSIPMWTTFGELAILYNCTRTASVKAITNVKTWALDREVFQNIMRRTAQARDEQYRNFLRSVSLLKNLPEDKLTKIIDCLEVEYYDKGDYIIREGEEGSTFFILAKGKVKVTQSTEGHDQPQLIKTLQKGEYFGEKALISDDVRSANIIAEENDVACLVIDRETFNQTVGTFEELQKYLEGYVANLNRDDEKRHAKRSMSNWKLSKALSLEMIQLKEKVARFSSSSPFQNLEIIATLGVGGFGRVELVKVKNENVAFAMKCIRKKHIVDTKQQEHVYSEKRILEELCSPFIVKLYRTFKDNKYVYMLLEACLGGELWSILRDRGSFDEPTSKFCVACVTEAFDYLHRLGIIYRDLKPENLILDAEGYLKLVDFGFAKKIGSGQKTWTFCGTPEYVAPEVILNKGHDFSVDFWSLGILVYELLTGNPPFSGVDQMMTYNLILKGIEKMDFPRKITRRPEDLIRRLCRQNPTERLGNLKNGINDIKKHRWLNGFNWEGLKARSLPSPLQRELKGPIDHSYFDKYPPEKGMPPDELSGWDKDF
PTK2 (human), sequence (Q05397 whole entry, looked up): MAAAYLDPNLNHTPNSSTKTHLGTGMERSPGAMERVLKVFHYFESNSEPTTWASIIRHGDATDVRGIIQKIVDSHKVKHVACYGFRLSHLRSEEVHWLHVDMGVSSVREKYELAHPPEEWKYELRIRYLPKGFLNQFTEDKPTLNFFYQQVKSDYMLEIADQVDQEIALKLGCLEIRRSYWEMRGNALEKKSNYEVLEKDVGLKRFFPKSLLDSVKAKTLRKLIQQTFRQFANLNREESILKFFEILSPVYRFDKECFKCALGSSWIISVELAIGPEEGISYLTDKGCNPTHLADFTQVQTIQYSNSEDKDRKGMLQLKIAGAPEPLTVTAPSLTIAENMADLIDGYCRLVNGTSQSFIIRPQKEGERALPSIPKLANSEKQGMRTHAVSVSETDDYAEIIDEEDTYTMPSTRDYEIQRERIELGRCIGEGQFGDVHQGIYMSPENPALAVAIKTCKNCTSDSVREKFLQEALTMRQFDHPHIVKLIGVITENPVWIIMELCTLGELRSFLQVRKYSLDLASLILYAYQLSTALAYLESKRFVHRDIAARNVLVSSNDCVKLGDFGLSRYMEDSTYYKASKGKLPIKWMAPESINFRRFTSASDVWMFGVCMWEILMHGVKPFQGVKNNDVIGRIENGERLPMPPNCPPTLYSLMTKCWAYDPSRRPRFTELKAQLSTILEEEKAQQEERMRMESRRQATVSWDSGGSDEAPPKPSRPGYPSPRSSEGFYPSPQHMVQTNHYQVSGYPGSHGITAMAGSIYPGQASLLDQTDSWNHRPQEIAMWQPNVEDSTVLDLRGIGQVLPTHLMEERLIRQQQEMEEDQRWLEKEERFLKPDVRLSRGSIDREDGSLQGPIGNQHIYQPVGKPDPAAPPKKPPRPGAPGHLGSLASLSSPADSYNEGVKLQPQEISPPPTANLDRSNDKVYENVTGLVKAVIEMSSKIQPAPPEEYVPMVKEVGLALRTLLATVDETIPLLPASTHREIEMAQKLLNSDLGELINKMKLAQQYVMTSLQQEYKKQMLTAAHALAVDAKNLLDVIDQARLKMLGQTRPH
CSNK1G2 (human), sequence (P78368 whole entry, looked up): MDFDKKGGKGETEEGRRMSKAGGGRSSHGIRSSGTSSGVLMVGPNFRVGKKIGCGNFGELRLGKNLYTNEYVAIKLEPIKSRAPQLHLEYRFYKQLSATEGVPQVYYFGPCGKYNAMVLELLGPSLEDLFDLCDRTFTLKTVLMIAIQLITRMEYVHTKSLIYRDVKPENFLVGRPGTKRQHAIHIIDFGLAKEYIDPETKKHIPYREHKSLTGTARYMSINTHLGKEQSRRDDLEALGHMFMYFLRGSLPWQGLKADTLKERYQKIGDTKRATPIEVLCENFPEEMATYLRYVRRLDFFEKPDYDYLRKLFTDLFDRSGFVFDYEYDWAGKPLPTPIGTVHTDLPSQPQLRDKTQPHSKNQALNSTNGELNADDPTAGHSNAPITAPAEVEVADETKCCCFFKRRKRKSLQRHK
CAMK1D (human), sequence (Q8IU85 whole entry, looked up): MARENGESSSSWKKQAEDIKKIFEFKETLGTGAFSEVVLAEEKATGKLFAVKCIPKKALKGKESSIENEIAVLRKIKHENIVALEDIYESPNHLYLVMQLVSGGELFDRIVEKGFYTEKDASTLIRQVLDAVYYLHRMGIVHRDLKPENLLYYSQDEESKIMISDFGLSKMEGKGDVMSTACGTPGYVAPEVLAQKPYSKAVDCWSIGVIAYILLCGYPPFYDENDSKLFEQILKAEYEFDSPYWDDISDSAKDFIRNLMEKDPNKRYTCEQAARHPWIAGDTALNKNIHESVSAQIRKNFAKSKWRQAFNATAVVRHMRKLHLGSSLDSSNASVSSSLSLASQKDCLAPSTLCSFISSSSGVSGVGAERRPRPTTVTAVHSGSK

inhibition (PDGFRB (human)): 5% | inhibition (PHKG1 (human)): 11% | inhibition (CAMK1D (human)): 12% | inhibition (FER (human)): 1% | inhibition (MAPKAPK2 (human)): -4% | inhibition (PRKCE (human)): 2% | inhibition [1]: 1% | inhibition (AKT3 (human)): 3% | inhibition (MAP3K9 (human)): 2% | inhibition (EPHA8 (human)): 3% | inhibition (ROCK1 (human)): -2% | inhibition (MAP2K1 (human)): 4% | inhibition (ERBB2 (human)): -4% | inhibition (MAPKAPK3 (human)): 1% | inhibition (PTK2 (human)): 4% | inhibition (PRKG2 (human)): 10% | inhibition (MST4 (human)): -3% | inhibition (DAPK3 (human)): 1% | inhibition (SGK3 (human)): 20% | inhibition (KDR (human)): 3% | inhibition (FGFR4 (human)): 5% | inhibition (AURKB (human)): 11% | inhibition (CAMK2B (human)): 9% | inhibition (LCK (human)): 7% | inhibition (PRKCA (human)): 4% | inhibition (MINK1 (human)): 4% | inhibition (JAK2 JH1 JH2 (human)): 18% | inhibition (ERBB4 (human)): 10% | inhibition (EPHA5 (human)): 0% | inhibition (NEK1 (human)): 8% | inhibition (TYRO3 (human)): 3% | inhibition (PRKACA (human)): 0% | inhibition (ADRBK2 (human)): 2% | inhibition (ABL2 (human)): -3% | inhibition (RPS6KA2 KD1 KD2 (human)): 4% | inhibition (CSNK1A1 (human)): -1% | inhibition (CSNK2A2 (human)): -2% | inhibition (FLT1 (human)): 2% | inhibition (CSNK1G2 (human)): 0% | inhibition (PRKCB1 (human)): 30%
Structure (SMILES): Nc1cc(C(F)(F)F)c(-c2cc(N3CCOCC3)nc(N3CCOCC3)n2)cn1

From the kinase profiling compilation of Christmann-Franck et al. (2016)
